Laboratory results reported in ChEMBL document CHEMBL5634133, “Indirubin derivatives as bifunctional molecules inducing DNA damage and targeting PARP for the treatment of cancer” (Eur J Med Chem, 2023).
Each block holds one compound with its values, some of them ahead of it. Calls of active or inactive are those of the source. The calls are words filed in the database; no cut-off is given here.

What was measured:
MCF7 [1] = experiment: cells; conditions: Homo sapiens, MCF7, 72 h
Description: Antiproliferative activity against human MCF7 cells assessed as inhibition of cell viability incubated for 72 hrs in presence of IDM by CCK8 assay

MV4-11 [2] = experiment: Antiproliferative activity against human MV4-11 cells assessed as inhibition of cell viability incubated for 72 hrs in presence of IDM by CCK8 assay; type: functional, cell-based; conditions: MV4-11, 72 h
HCT-116 [3] = experiment: cells; conditions: Homo sapiens, HCT-116, 72 h
Description: Antiproliferative activity against human HCT-116 cells assessed as inhibition of cell viability incubated for 72 hrs in presence of IDM by CCK8 assay

A549 [4] = experiment: Antiproliferative activity against human A549 cells assessed as inhibition of cell viability incubated for 72 hrs by CCK8 assay; type: functional, cell-based; conditions: A549, 72 h
HCT-116 [5] = experiment: Antitumor activity against human HCT-116 cells xenografted in BALB/c nude mouse assessed as tumor growth inhibition at 20 mg/kg, ip administered for 14 days relative to control; type: functional; conditions: time 14 day
NCM460 [6] = experiment: cells; conditions: Homo sapiens, NCM460, 72 h
Description: Antiproliferative activity against human NCM460 cells assessed as inhibition of cell viability incubated for 72 hrs in presence of IDM by CCK8 assay

MCF7 [7] = experiment: Antiproliferative activity against human MCF7 cells assessed as inhibition of cell viability incubated for 72 hrs by CCK8 assay; type: functional, cell-based; conditions: MCF7, 72 h
NCM460 [8] = experiment: Antiproliferative activity against human NCM460 cells assessed as inhibition of cell viability incubated for 72 hrs by CCK8 assay; type: functional, cell-based; conditions: NCM460, 72 h
A549 [9] = experiment: cells; conditions: Homo sapiens, A549, 72 h
Description: Antiproliferative activity against human A549 cells assessed as inhibition of cell viability incubated for 72 hrs in presence of IDM by CCK8 assay

HCT-116 [10] = experiment: Antiproliferative activity against human HCT-116 cells assessed as inhibition of cell viability incubated for 72 hrs by CCK8 assay; type: functional, cell-based; conditions: HCT-116, 72 h
[11] = molecular target: T1, Poly [ADP-ribose] polymerase 1 (Homo sapiens, UniProt P09874); conditions: dose 10.0 nM, time 10.0 min
HCT-116 [12] = experiment: Induction of DNA damage in human HCT-116 cells assessed as increase in gammaH2AX protein level at 1 uM incubated for 48 hrs in presence of IDM by Western blotting analysis; type: cell-based
MV4-11 [13] = experiment: Antiproliferative activity against human MV4-11 cells assessed as inhibition of cell viability incubated for 72 hrs by CCK8 assay; type: functional, cell-based; conditions: MV4-11, 72 h
[14] = molecular target: T1, Poly [ADP-ribose] polymerase 1; experiment: Inhibition of PARP1 (unknown origin) incubated for 10 mins by chemiluminescence assay
NCM460 [15] = experiment: Antiproliferative activity against human NCM460 cells assessed as inhibition of cell viability incubated for 72 hrs in presence of olaparib by CCK8 assay; type: functional, cell-based; conditions: NCM460, 72 h
HCT-116 [16] = experiment: Induction of DNA damage in human HCT-116 cells assessed as increase in gammaH2AX protein level at 1 uM incubated for 48 hrs in presence of Olaparib by Western blotting analysis; type: functional, cell-based
NCM460 [17] = experiment: Antiproliferative activity against human NCM460 cells assessed as combination index incubated for 72 hrs in presence of olaparib by CCK8 assay; type: functional
A549 [18] = experiment: Antiproliferative activity against human A549 cells assessed as inhibition of cell viability incubated for 72 hrs in presence of olaparib by CCK8 assay; type: functional, cell-based; conditions: A549, 72 h
HCT-116 [19] = experiment: Antiproliferative activity against human HCT-116 cells assessed as combination index incubated for 72 hrs in presence of olaparib by CCK8 assay; type: functional
MCF7 [20] = experiment: Antiproliferative activity against human MCF7 cells assessed as combination index incubated for 72 hrs in presence of Niraparib by CCK8 assay; type: functional
A549 [21] = experiment: Antiproliferative activity against human A549 cells assessed as combination index incubated for 72 hrs in presence of Niraparib by CCK8 assay; type: functional
MCF7 [22] = experiment: Antiproliferative activity against human MCF7 cells assessed as inhibition of cell viability incubated for 72 hrs in presence of Niraparib by CCK8 assay; type: functional, cell-based; conditions: MCF7, 72 h
HCT-116 [23] = experiment: Antiproliferative activity against human HCT-116 cells assessed as inhibition of cell viability incubated for 72 hrs in presence of olaparib by CCK8 assay; type: functional, cell-based; conditions: HCT-116, 72 h
A549 [24] = experiment: Antiproliferative activity against human A549 cells assessed as combination index incubated for 72 hrs in presence of olaparib by CCK8 assay; type: functional
MV4-11 [25] = experiment: Antiproliferative activity against human MV4-11 cells assessed as combination index incubated for 72 hrs in presence of olaparib by CCK8 assay; type: functional
HCT-116 [26] = experiment: Antitumor activity against human HCT-116 cells xenografted in BALB/c nude mouse assessed as tumor growth inhibition at 20 mg/kg, ip administered for 14 days in presence of Olaparib relative to control; type: functional; conditions: HCT-116, 336 h, time 14 day, read-out: TGI
MV4-11 [27] = experiment: Antiproliferative activity against human MV4-11 cells assessed as combination index incubated for 72 hrs in presence of Niraparib by CCK8 assay; type: functional
HCT-116 [28] = experiment: Antiproliferative activity against human HCT-116 cells assessed as combination index incubated for 72 hrs in presence of Niraparib by CCK8 assay; type: functional
MV4-11 [29] = experiment: Antiproliferative activity against human MV4-11 cells assessed as inhibition of cell viability incubated for 72 hrs in presence of olaparib by CCK8 assay; type: functional, cell-based; conditions: MV4-11, 72 h
MV4-11 [30] = experiment: Antiproliferative activity against human MV4-11 cells assessed as inhibition of cell viability incubated for 72 hrs in presence of Niraparib by CCK8 assay; type: functional, cell-based; conditions: MV4-11, 72 h
MCF7 [31] = experiment: Antiproliferative activity against human MCF7 cells assessed as inhibition of cell viability incubated for 72 hrs in presence of olaparib by CCK8 assay; type: functional, cell-based; conditions: MCF7, 72 h
NCM460 [32] = experiment: Antiproliferative activity against human NCM460 cells assessed as inhibition of cell viability incubated for 72 hrs in presence of Niraparib by CCK8 assay; type: functional, cell-based; conditions: NCM460, 72 h
MCF7 [33] = experiment: Antiproliferative activity against human MCF7 cells assessed as combination index incubated for 72 hrs in presence of olaparib by CCK8 assay; type: functional
HCT-116 [34] = experiment: Antiproliferative activity against human HCT-116 cells assessed as inhibition of cell viability incubated for 72 hrs in presence of Niraparib by CCK8 assay; type: functional, cell-based; conditions: HCT-116, 72 h
A549 [35] = experiment: Antiproliferative activity against human A549 cells assessed as inhibition of cell viability incubated for 72 hrs in presence of Niraparib by CCK8 assay; type: functional, cell-based; conditions: A549, 72 h
NCM460 [36] = experiment: Antiproliferative activity against human NCM460 cells assessed as combination index incubated for 72 hrs in presence of Niraparib by CCK8 assay; type: functional

T1 sequence (P09874 whole entry): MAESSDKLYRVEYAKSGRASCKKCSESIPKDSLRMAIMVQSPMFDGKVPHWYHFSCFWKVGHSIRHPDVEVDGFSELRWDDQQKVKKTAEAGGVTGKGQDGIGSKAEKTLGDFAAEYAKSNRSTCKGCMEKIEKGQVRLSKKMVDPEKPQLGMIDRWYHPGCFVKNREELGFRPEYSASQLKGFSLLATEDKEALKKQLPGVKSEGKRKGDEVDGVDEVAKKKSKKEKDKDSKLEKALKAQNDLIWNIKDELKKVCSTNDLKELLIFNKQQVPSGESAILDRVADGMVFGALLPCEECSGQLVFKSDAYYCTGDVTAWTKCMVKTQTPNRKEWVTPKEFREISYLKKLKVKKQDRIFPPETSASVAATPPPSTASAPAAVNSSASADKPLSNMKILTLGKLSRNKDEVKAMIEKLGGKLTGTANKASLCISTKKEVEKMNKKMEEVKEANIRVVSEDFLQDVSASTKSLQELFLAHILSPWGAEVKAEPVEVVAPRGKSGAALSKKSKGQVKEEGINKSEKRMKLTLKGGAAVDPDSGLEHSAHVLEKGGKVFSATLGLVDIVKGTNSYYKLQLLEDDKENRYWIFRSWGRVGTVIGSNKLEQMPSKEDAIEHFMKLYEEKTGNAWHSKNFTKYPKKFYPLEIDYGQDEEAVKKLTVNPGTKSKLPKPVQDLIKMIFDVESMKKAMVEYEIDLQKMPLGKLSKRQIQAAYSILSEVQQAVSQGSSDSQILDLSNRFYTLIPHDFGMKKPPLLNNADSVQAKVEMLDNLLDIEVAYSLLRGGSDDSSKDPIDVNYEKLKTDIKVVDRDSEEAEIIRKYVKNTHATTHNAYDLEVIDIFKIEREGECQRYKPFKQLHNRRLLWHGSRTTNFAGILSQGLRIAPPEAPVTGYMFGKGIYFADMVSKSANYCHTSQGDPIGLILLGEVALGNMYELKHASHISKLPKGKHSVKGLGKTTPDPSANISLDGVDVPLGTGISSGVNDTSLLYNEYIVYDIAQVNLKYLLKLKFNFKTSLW

Structure (SMILES): O=C(c1cc(Cc2n[nH]c(=O)c3ccccc23)ccc1F)N1CCN(C(=O)C2CC2)CC1 [OLAPARIB]
IC50 (MCF7 [1]): 2.33 µM
IC50 (MV4-11 [2]): 2.36 µM
IC50 (HCT-116 [3]): 1.37 µM
IC50 (A549 [4]): 29.5 µM
TGI (HCT-116 [5]): 32.5%
IC50 (NCM460 [6]): 20.2 µM
IC50 (MCF7 [7]): 93.9 µM
IC50 (NCM460 [8]): 67.2 µM
IC50 (A549 [9]): 6.06 µM
IC50 (HCT-116 [10]): 11.1 µM
inhibition [11]: 50.6%
Activity (HCT-116 [12]): Active
IC50 (MV4-11 [13]): 13.4 µM

Structure (SMILES): O=C1Nc2ccc(Br)cc2/C1=C1/Nc2ccccc2/C1=N\OCCCC(=O)N1CCN(C(=O)c2cc(Cc3n[nH]c(=O)c4ccccc34)ccc2F)CC1
IC50 [14]: 0.00466 µM
IC50 (A549 [4]): 27.6 µM
IC50 (MCF7 [7]): 29.2 µM
IC50 (NCM460 [8]): > 60 µM
IC50 (HCT-116 [10]): 8.43 µM
inhibition [11]: 53.8%
IC50 (MV4-11 [13]): 11.4 µM

Structure (SMILES): O=C1Nc2ccc(Br)cc2/C1=C1/Nc2ccc(Br)cc2/C1=N\OCCCC(=O)N1CCN(C(=O)c2cc(Cc3n[nH]c(=O)c4ccccc34)ccc2F)CC1
IC50 (A549 [4]): 47.2 µM
IC50 (MCF7 [7]): 48.7 µM
IC50 (NCM460 [8]): > 60 µM
IC50 (HCT-116 [10]): 8.21 µM
inhibition [11]: 31.1%
IC50 (MV4-11 [13]): 48.4 µM

Structure (SMILES): O=C1Nc2ccc(F)cc2/C1=C1/Nc2ccccc2/C1=N\OCCCC(=O)N1CCN(C(=O)c2cc(Cc3n[nH]c(=O)c4ccccc34)ccc2F)CC1
IC50 [14]: 0.00225 µM
IC50 (A549 [4]): 34.7 µM
IC50 (MCF7 [7]): 38.7 µM
IC50 (NCM460 [8]): > 60 µM
IC50 (HCT-116 [10]): 19.3 µM
inhibition [11]: 54.9%
IC50 (MV4-11 [13]): 23.8 µM

Structure (SMILES): O=C1Nc2ccc(F)cc2/C1=C1/Nc2ccc(F)cc2/C1=N\OCCCC(=O)N1CCN(C(=O)c2cc(Cc3n[nH]c(=O)c4ccccc34)ccc2F)CC1
IC50 (A549 [4]): 42.3 µM
IC50 (MCF7 [7]): 45.3 µM
IC50 (NCM460 [8]): > 60 µM
IC50 (HCT-116 [10]): 0.75 µM
inhibition [11]: 49.9%
IC50 (MV4-11 [13]): 44.4 µM

Further lines, with some results ahead:

IC50 (A549 [18]): 6.06 µM
IC50 (MCF7 [22]): 1.41 µM
IC50 (HCT-116 [23]): 1.37 µM
IC50 (A549 [4]): 8.21 µM
IC50 (MV4-11 [29]): 2.36 µM
IC50 (MV4-11 [30]): 1.69 µM
IC50 (MCF7 [7]): 4.1 µM
IC50 (HCT-116 [10]): 3.88 µM
IC50 (MCF7 [31]): 2.33 µM
IC50 (HCT-116 [34]): 0.83 µM
IC50 (A549 [35]): 4.17 µM
IC50 (MV4-11 [13]): 6.01 µM
Structure (SMILES): O=C1Nc2ccccc2/C1=C1/Nc2ccccc2/C1=N\O
IC50 (NCM460 [15]): 20.2 µM
Activity (HCT-116 [16]): Active
CI (NCM460 [17]): 0.92
CI (HCT-116 [19]): 0.47
CI (MCF7 [20]): 0.47
CI (A549 [21]): 0.84
CI (A549 [24]): 0.94
CI (MV4-11 [25]): 0.57
inhibition in vivo at 20 mg/kg (HCT-116 [26]): 64.6%
CI (MV4-11 [27]): 0.72
CI (HCT-116 [28]): 0.67
inhibition in vivo at 20 mg/kg (HCT-116 [5]; Mus musculus, HCT-116, 336 h, read-out: TGI): 47.4%
IC50 (NCM460 [8]): 13.1 µM
IC50 (NCM460 [32]): 21.1 µM
CI (MCF7 [33]): 0.59
CI (NCM460 [36]): 1

IC50 [14]: 0.00446 µM
IC50 (A549 [4]): 25 µM
IC50 (MCF7 [7]): 32.4 µM
IC50 (HCT-116 [10]): 17.8 µM
inhibition [11]: 55.8%
IC50 (MV4-11 [13]): 21.6 µM
Structure (SMILES): O=C1Nc2ccccc2/C1=C1/Nc2ccc(F)cc2/C1=N\OCCCC(=O)N1CCN(C(=O)c2cc(Cc3n[nH]c(=O)c4ccccc34)ccc2F)CC1
IC50 (NCM460 [8]): > 60 µM

IC50 (A549 [4]): > 50 µM
IC50 (MCF7 [7]): > 50 µM
IC50 (HCT-116 [10]): 29.4 µM
IC50 (MV4-11 [13]): 47 µM
Structure (SMILES): NC(=O)c1cccc2cn(-c3ccc([C@@H]4CCCN(C(=O)CCCCCO/N=C5/C(=C6/C(=O)Nc7ccccc76)Nc6ccccc65)C4)cc3)nc12
IC50 (NCM460 [8]): > 60 µM

IC50 (A549 [4]): > 50 µM
IC50 (MCF7 [7]): > 50 µM
IC50 (HCT-116 [10]): 39.2 µM
IC50 (MV4-11 [13]): > 50 µM
Structure (SMILES): O=C1Nc2ccccc2/C1=C1/Nc2ccccc2/C1=N\OCCCCCCC(=O)N1CCN(C(=O)c2ccc(Cc3n[nH]c(=O)c4ccccc34)cc2F)CC1
IC50 (NCM460 [8]): > 60 µM

IC50 (MCF7 [1]): 1.41 µM
IC50 (MV4-11 [2]): 1.69 µM
IC50 (HCT-116 [3]): 0.83 µM
IC50 (A549 [4]): 12.6 µM
IC50 (NCM460 [6]): 21.1 µM
IC50 (MCF7 [7]): 11.8 µM
IC50 (A549 [9]): 4.17 µM
IC50 (HCT-116 [10]): 1.81 µM
IC50 (MV4-11 [13]): 3.82 µM
Structure (SMILES): NC(=O)c1cccc2cn(-c3ccc([C@@H]4CCCNC4)cc3)nc12 [NIRAPARIB]
IC50 (NCM460 [8]): 53.7 µM
